Test systems include ACHN; EKVX; HCT-116; HCT-15; HL-60; HOP-92; MDA-N; MOLT-4; NCI-H23; NCI/ADR-RES; OVCAR-4; OVCAR-8; PC-3; RPMI-8226; SK-MEL-2; SK-MEL-5; SN12C; TK-10; UO-31.
Experiment in all cases: NCI tumour cell line growth inhibition, 48 h

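The compound was tested at five concentrations on cells cultured in 96-well plates, with a 48-hour exposure period. GI50 marks 50% less growth.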 Activity calls are given as the source filed them. Cut-off read from the data, not from the text of the source: active = GI50 up to about 1.1 µM and inactive = higher. Where only a bound is given, the exact number is not on record here.

Take `CCC12CCCN3CCc4c(n(c5ccccc45)C(O)(C(=O)OC)C1)C32` (stereo not given): the GI50 is > 100 µM (inactive) in the experiment on ACHN; > 100 µM (inactive) with EKVX; > 100 µM (inactive) with HCT-116; more than 100 µM in the experiment with HCT-15; > 100 µM (inactive) with HL-60; > 100 µM (inactive) in the experiment on HOP-92. In addition, the GI50 in the experiment with MDA-N, in the experiment with MOLT-4, in the experiment with NCI-H23, in the experiment with NCI/ADR-RES, in the experiment on OVCAR-4 and in the experiment on OVCAR-8 was > 100 µM (inactive) in each case. Moreover, the GI50 in the experiment on PC-3, in the experiment with RPMI-8226, in the experiment with SK-MEL-2, in the experiment on SK-MEL-5, in the experiment with SN12C and with TK-10 was > 100 µM (inactive) in each case. Also, in the experiment on UO-31, the GI50 was > 100 µM (inactive).

As to `COc1ccc(N2C(=O)C(C)SC2c2cc3cc(Br)ccc3nc2Cl)cc1` (stereo not given), the GI50 in the experiment on ACHN is 48.8 µM (inactive); in the experiment on EKVX it was 21.6 µM (inactive); in the experiment with HCT-116 it was 37.8 µM (inactive); in the experiment with HCT-15, 32.9 µM; with HL-60, 24.8 µM (inactive); with HOP-92, 22.9 µM (inactive). For the same compound, the GI50 was 28.5 µM (inactive) in the experiment with MDA-N; 20.9 µM (inactive) with MOLT-4; 33.6 µM (inactive) in the experiment on NCI-H23; 24.3 µM (inactive) in the experiment with NCI/ADR-RES; 27.8 µM (inactive) in the experiment with OVCAR-4; 37.5 µM (inactive) with OVCAR-8. Besides, the GI50 is 25.4 µM (inactive) in the experiment with PC-3; 32.7 µM (inactive) in the experiment with RPMI-8226; 19.7 µM (inactive) in the experiment on SK-MEL-2; 36.1 µM (inactive) in the experiment with SK-MEL-5; 35.2 µM (inactive) in the experiment with SN12C; 38.6 µM (inactive) in the experiment on TK-10. Further, in the experiment with UO-31, the GI50 is 33.6 µM (inactive).

Regarding `O=C1N/C(=N/N=C\C(O)C(O)C(O)C(O)CO)N/C1=C\c1ccc(Cl)cc1` (stereo not given), the GI50 in the experiment with ACHN is 21.9 µM (inactive); with EKVX, 12.1 µM (inactive); with HCT-116, 9.59 µM (inactive); in the experiment with HCT-15, more than 86.5 µM; with HL-60, 25.3 µM (inactive); in the experiment on HOP-92, 1.8 µM (inactive). Besides, the GI50 in the experiment with MDA-N was 0.968 µM (active); in the experiment on MOLT-4, 3.9 µM (inactive); in the experiment on NCI-H23, 5.32 µM (inactive); in the experiment on NCI/ADR-RES it was > 100 µM (inactive); in the experiment with OVCAR-4, 7.46 µM (inactive); in the experiment with OVCAR-8, 1.53 µM (inactive). Besides, the GI50 in the experiment with PC-3 was 5.52 µM (inactive); in the experiment with RPMI-8226, > 62.8 µM (inactive); in the experiment with SK-MEL-2, 7.06 µM (inactive); in the experiment with SK-MEL-5, 17 µM (inactive); in the experiment with SN12C, 1.51 µM (inactive); in the experiment on TK-10, 4.8 µM (inactive). In the experiment with UO-31, the GI50 was 44.1 µM (inactive).

As for `Cc1cc(O)c2c(c1)C(=O)C(c1c(C)cc3c(c1O)C(=O)C1OC1C3=O)=CC2=O` (stereo not given), the GI50 in the experiment with ACHN was 0.885 µM (active); with EKVX it was 3.15 µM (inactive); in the experiment on HCT-116 it was 1.71 µM (inactive); with HCT-15, 1.16 µM; with HL-60, 0.0175 µM (active); in the experiment with HOP-92, 0.839 µM (active). Besides, the GI50 was 1.27 µM (inactive) in the experiment with MDA-N; 0.147 µM (active) in the experiment on MOLT-4; 8.97 µM (inactive) in the experiment on NCI-H23; 2.77 µM (inactive) in the experiment on NCI/ADR-RES; 3.33 µM (inactive) in the experiment with OVCAR-4; 4.11 µM (inactive) in the experiment with OVCAR-8. The GI50 in the experiment with PC-3 was 12.5 µM (inactive); in the experiment with RPMI-8226, 0.357 µM (active); with SK-MEL-2 it was 10.7 µM (inactive); in the experiment with SK-MEL-5, 6.34 µM (inactive); with SN12C, 3.44 µM (inactive); with TK-10 it was 1.1 µM (active). Moreover, the GI50 with UO-31 is 1.8 µM (inactive).

`O=C(/C=C1\Sc2ccccc2N=C1CC(=O)c1ccccc1)c1ccccc1`: the GI50 in the experiment with ACHN is 4.39 µM (inactive); in the experiment with EKVX it was 6.17 µM (inactive); with HCT-116, 4.9 µM (inactive); with HCT-15, 2.65 µM; with HL-60, 4.89 µM (inactive); in the experiment with HOP-92, 3.35 µM (inactive). Moreover, the GI50 in the experiment with MDA-N is 8.22 µM (inactive); in the experiment with MOLT-4 it was 1.79 µM (inactive); with NCI-H23, 35.6 µM (inactive); in the experiment with NCI/ADR-RES it was 4.02 µM (inactive); in the experiment on OVCAR-4, 4.99 µM (inactive); in the experiment on OVCAR-8, 3.67 µM (inactive). Also, the GI50 in the experiment on PC-3 is 8.22 µM (inactive); in the experiment on RPMI-8226, 4.65 µM (inactive); in the experiment with SK-MEL-2, 17.3 µM (inactive); with SK-MEL-5 it was 2.61 µM (inactive); with SN12C, 3.88 µM (inactive); in the experiment with TK-10 it was 5.73 µM (inactive). Also, the GI50 in the experiment with UO-31 was 8.49 µM (inactive).

For `S=c1sc2nc(Cl)nc(Cl)c2s1`, the GI50 in the experiment on ACHN is 13.9 µM (inactive); with EKVX, 16.9 µM (inactive); with HCT-116, 11.9 µM (inactive); with HCT-15, 13.2 µM; in the experiment on HL-60 it was 0.442 µM (active); in the experiment on HOP-92, 5.24 µM (inactive). Further, the GI50 in the experiment on MDA-N is 7.98 µM (inactive); in the experiment on MOLT-4 it was 0.822 µM (active); in the experiment with NCI-H23, 16.9 µM (inactive); with NCI/ADR-RES it was 11 µM (inactive); in the experiment with OVCAR-4 it was 16.6 µM (inactive); with OVCAR-8 it was 9.33 µM (inactive). Besides, the GI50 in the experiment on PC-3 is 12.4 µM (inactive); in the experiment on RPMI-8226 it was 1.68 µM (inactive); with SK-MEL-2, 11.4 µM (inactive); in the experiment with SK-MEL-5, 8.73 µM (inactive); in the experiment on SN12C, 14.5 µM (inactive); in the experiment with TK-10, 13.6 µM (inactive). In the experiment with UO-31, the GI50 is 11.1 µM (inactive).

For `CC1OC(OC2C(O[C@@H]3C[C@@H]4CC[C@@H]5[C@H](CC[C@]6(C)C7C(C[C@@H]56)O[C@]5(CC[C@@H](C)CO5)[C@H]7C)[C@@]4(C)C[C@H]3O)OC(CO)C(O)C2O)C(O)C(O)C1O` (stereo not given in full), the GI50 in the experiment with ACHN was 1.75 µM (inactive); in the experiment on EKVX, 1.92 µM (inactive); with HCT-116 it was 1.81 µM (inactive); in the experiment on HCT-15, 1.87 µM; in the experiment with HL-60, 2.06 µM (inactive); with HOP-92, 2.8 µM (inactive). In addition, the GI50 with MDA-N is 2.47 µM (inactive); in the experiment with MOLT-4 it was 1.86 µM (inactive); in the experiment with NCI-H23, 1.82 µM (inactive); in the experiment with NCI/ADR-RES it was 1.94 µM (inactive); in the experiment with OVCAR-4, 2.23 µM (inactive); in the experiment on OVCAR-8 it was 1.86 µM (inactive). The GI50 was 1.76 µM (inactive) in the experiment on PC-3; 2.28 µM (inactive) in the experiment on RPMI-8226; 1.78 µM (inactive) in the experiment on SK-MEL-2; 2.09 µM (inactive) with SK-MEL-5; 1.71 µM (inactive) with SN12C; 1.76 µM (inactive) in the experiment on TK-10. In the experiment with UO-31, the GI50 was 1.78 µM (inactive).

As to `COC(=O)CNC(=O)CCC(C)[C@H]1CCC2C3C(C[C@H](OC(C)=O)[C@@]21C)[C@@]1(C)CCC2(C[C@H]1C[C@H]3OC(C)=O)OOC1(CCCCC1)OO2` (stereo not given in full), the GI50 with ACHN is 1.89 µM (inactive); with EKVX, 2.18 µM (inactive); with HCT-116, 2.73 µM (inactive); with HCT-15, 2.7 µM; in the experiment with HL-60 it was 2.36 µM (inactive); in the experiment on HOP-92 it was 1.08 µM (active). The GI50 with MDA-N was 1.74 µM (inactive); with MOLT-4 it was 3.55 µM (inactive); in the experiment with NCI-H23, 1.91 µM (inactive); with NCI/ADR-RES, 2.17 µM (inactive); in the experiment with OVCAR-4 it was 1.83 µM (inactive); with OVCAR-8 it was 1.82 µM (inactive). The GI50 with PC-3 was 2.49 µM (inactive); in the experiment on RPMI-8226, 1.75 µM (inactive); in the experiment with SK-MEL-2, 2.24 µM (inactive); with SK-MEL-5 it was 2.63 µM (inactive); in the experiment on SN12C it was 1.59 µM (inactive); in the experiment on TK-10, 11.2 µM (inactive). In addition, the GI50 in the experiment on UO-31 is 1.84 µM (inactive).

For the compound `COc1cccc(-c2cc(=O)c3ccccc3o2)c1N`, the GI50 with ACHN is > 100 µM (inactive); with EKVX, 16.2 µM (inactive); in the experiment on HCT-116 it was 52 µM (inactive); with HCT-15, more than 100 µM; in the experiment with HL-60 it was 6.76 µM (inactive); in the experiment with HOP-92, > 83.4 µM (inactive). For the same compound, the GI50 in the experiment on MDA-N is 24.4 µM (inactive); in the experiment on MOLT-4, > 100 µM (inactive); in the experiment on NCI-H23, 72.9 µM (inactive); in the experiment with NCI/ADR-RES it was 33 µM (inactive); with OVCAR-4, 84.3 µM (inactive); in the experiment on OVCAR-8, 53 µM (inactive). Moreover, the GI50 in the experiment with PC-3 is > 23.6 µM (inactive); in the experiment on RPMI-8226 it was > 76.6 µM (inactive); in the experiment on SK-MEL-2, 27.4 µM (inactive); in the experiment on SK-MEL-5, 42.8 µM (inactive); in the experiment with SN12C it was > 100 µM (inactive); in the experiment on TK-10 it was > 100 µM (inactive). Further, the GI50 in the experiment on UO-31 was 36.3 µM (inactive).

Consider `O=[N+]([O-])c1ccc2nc(Nc3ccccc3)c(Nc3ccccc3)nc2c1`, for which the GI50 in the experiment with ACHN is 0.681 µM (active); in the experiment with EKVX, 1.82 µM (inactive); with HCT-116 it was 0.555 µM (active); with HCT-15, 0.753 µM; with HL-60, 9.31 µM (inactive); in the experiment on HOP-92 it was 1.63 µM (inactive). The GI50 is 0.553 µM (active) with MDA-N; 1.55 µM (inactive) with MOLT-4; 1.17 µM (inactive) in the experiment with NCI-H23; 1.46 µM (inactive) in the experiment with NCI/ADR-RES; 2.87 µM (inactive) in the experiment on OVCAR-4; 1.03 µM (active) in the experiment with OVCAR-8. The GI50 in the experiment with PC-3 is 0.847 µM (active); with RPMI-8226, 2.61 µM (inactive); in the experiment on SK-MEL-2, 2.15 µM (inactive); in the experiment on SK-MEL-5, 1.49 µM (inactive); in the experiment with SN12C it was 1.18 µM (inactive); with TK-10 it was 2.83 µM (inactive). For the same compound, the GI50 with UO-31 was 1.21 µM (inactive).

Source of the values: ChEMBL document CHEMBL1201862, “PubChem BioAssay data set” (2004).
